Read-outs that look alike come from different tables or passages of the source.
How the values were obtained:
Assay type in all cases: in vivo
rice (Oryra sativa) = assay: Test B flooded paddy test; settings: Oryza sativa, Flood, 250 g ai/ha
Summary of the method: (§1)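 Greenhouse paddy pots with 2-leaf stage plants received compound by direct addition to floodwater 3 cm deep, kept at that level. Scored visually at 13–15 d versus controls (0 no effect; 100 complete control).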

[1] = tested on: ducksalad (Heteranthera limosa); assay: Test B flooded paddy test; settings: Heteranthera limosa, Flood, 250 g ai/ha
Summary of the method: as §1

[2] = tested on: sedge, umbrella (small-flower umbrella sedge, Cyperus difformis); assay: Test B flooded paddy test; settings: Cyperus difformis, Flood, 250 g ai/ha
Summary of the method: as §1

[3] = tested on: barnyardgrass (Echinochloa crus-galli); assay: Test B flooded paddy test; settings: Echinochloa crus-galli, Flood, 250 g ai/ha
Summary of the method: as §1

[4] = tested on: ryegrass, Italian (Italian ryegrass, Lolium multiflorum); assay: Test A postemergence; settings: Lolium multiflorum, post-emergence, 240 h; for pest or weed control at 125 g/ha: 125 g ai/ha
Summary of the method: (§2)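 Greenhouse, ~10 d after spray; visual injury vs untreated controls, 0 = no effect, 100 = complete control. Preemergence: directed soil spray over planted seeds. Postemergence: plants 2–10 cm, 1–2 leaf stage. Loam/sand blend. Compound in non-phytotoxic solvent with surfactant.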

[5] = tested on: pigweed (Amaranthus retroflexus); assay: Test A postemergence; settings: Amaranthus retroflexus, post-emergence, 240 h; for pest or weed control at 125 g/ha: 125 g ai/ha
Summary of the method: as §2

[6] = tested on: blackgrass (Alopecurus myosuroides); assay: Test A postemergence; settings: Alopecurus myosuroides, post-emergence, 240 h; for pest or weed control at 125 g/ha: 125 g ai/ha
Summary of the method: as §2

[7] = tested on: giant foxtail (Setaria faberii); assay: Test A postemergence; settings: Setaria faberi, post-emergence, 240 h; for pest or weed control at 125 g/ha: 125 g ai/ha
Summary of the method: as §2

[8] = tested on: wheat (Triticum aestivum); assay: Test A postemergence; settings: Triticum aestivum, post-emergence, 240 h; for plant injury at 125 g/ha: 125 g ai/ha
Summary of the method: as §2

[9] = tested on: ryegrass, Italian (Italian ryegrass, Lolium multiflorum); assay: Test A preemergence; settings: Lolium multiflorum, pre-emergence, 240 h, read-out: Plant response rating, Ryegrass, Italian; for pest or weed control at 125 g/ha: 125 g ai/ha; for pest or weed control at 500 g/ha: 500 g ai/ha
Summary of the method: as §2

[10] = tested on: pigweed (Amaranthus retroflexus); assay: Test A preemergence; settings: Amaranthus retroflexus, pre-emergence, 240 h, read-out: Plant response rating, Pigweed; for pest or weed control at 125 g/ha: 125 g ai/ha; for pest or weed control at 500 g/ha: 500 g ai/ha
[11] = tested on: ragweed (common ragweed, Ambrosia elatior); assay: Test A preemergence; settings: Ambrosia artemisiifolia, pre-emergence, 240 h, read-out: Plant response rating, Ragweed; for pest or weed control at 125 g/ha: 125 g ai/ha; for pest or weed control at 500 g/ha: 500 g ai/ha
Summary of the method: as §2

[12] = tested on: barnyardgrass (Echinochloa crus-galli); assay: Test A preemergence; settings: Echinochloa crus-galli, pre-emergence, 240 h, read-out: Plant response rating, Barnyardgrass; for pest or weed control at 125 g/ha: 125 g ai/ha; for pest or weed control at 500 g/ha: 500 g ai/ha
Summary of the method: as §2

Kochia (Kochia scoparia) = assay: Test A preemergence; settings: Bassia scoparia, pre-emergence, 240 h, read-out: Plant response rating, Kochia; for pest or weed control at 125 g/ha: 125 g ai/ha; for pest or weed control at 500 g/ha: 500 g ai/ha
Summary of the method: as §2

[13] = tested on: giant foxtail (Setaria faberii); assay: Test A preemergence; settings: Setaria faberi, pre-emergence, 240 h, read-out: Plant response rating, Foxtail, Giant; for pest or weed control at 125 g/ha: 125 g ai/ha; for pest or weed control at 500 g/ha: 500 g ai/ha
Summary of the method: as §2

[14] = preemergence, visual rating after approx. 10 d, 0 to 100 scale where 0 is no effect and 100 is complete control
[15] = preemergence, 0 to 100 scale, 0 = no effect, 100 = complete control
[16] = preemergence, 0 to 100 scale (0 no effect, 100 complete control)
[17] = Preemergence, 0 to 100 scale (0 no effect, 100 complete control)

O=C1NC[C@H](c2ccc(C(F)(F)F)cc2)[C@H]1C(=O)Nc1ccccc1C1CC1 [Compound 746]
pest or weed control at 250 g/ha (rice (Oryra sativa); scale of 0 to 100 where 0 is no effect and 100 is complete control, read-out: Rice plant response rating): 0%
pest or weed control at 250 g/ha ([1]; scale of 0 to 100 where 0 is no effect and 100 is complete control, read-out: Ducksalad plant response rating): 95%
pest or weed control at 250 g/ha ([2]; scale of 0 to 100 where 0 is no effect and 100 is complete control, read-out: Sedge, Umbrella plant response rating): 0%
pest or weed control at 250 g/ha ([3]; scale of 0 to 100 where 0 is no effect and 100 is complete control, read-out: Barnyardgrass plant response rating): 0%
pest or weed control at 125 g/ha ([4]; postemergence, visual injury after approximately 10 d, 0 to 100 scale (0 no effect, 100 complete control), read-out: Plant response rating, Ryegrass, Italian): 0%
pest or weed control at 125 g/ha ([5]; postemergence, visual injury after approximately 10 d, 0 to 100 scale (0 no effect, 100 complete control), read-out: Plant response rating, Pigweed): 0%
pest or weed control at 125 g/ha ([6]; postemergence, visual injury after approximately 10 d, 0 to 100 scale (0 no effect, 100 complete control), read-out: Plant response rating, Blackgrass): 20%
pest or weed control at 125 g/ha ([7]; postemergence, visual injury after approximately 10 d, 0 to 100 scale (0 no effect, 100 complete control), read-out: Plant response rating, Foxtail, Giant): 50%
plant injury at 125 g/ha ([8]; postemergence, visual injury after approximately 10 d, 0 to 100 scale (0 no effect, 100 complete control), read-out: Plant response rating, Wheat): 0%
pest or weed control at 125 g/ha [9, 14]: 0%
pest or weed control at 500 g/ha [9, 15]: 40%
pest or weed control at 125 g/ha [10, 14]: 0%
pest or weed control at 500 g/ha [10, 15]: 20%
pest or weed control at 125 g/ha [11, 14]: 0%
pest or weed control at 500 g/ha [11, 15]: 0%
pest or weed control at 125 g/ha [12, 14]: 0%
pest or weed control at 500 g/ha [12, 15]: 0%
pest or weed control at 125 g/ha (Kochia (Kochia scoparia); [14]): 0%
pest or weed control at 500 g/ha (Kochia (Kochia scoparia); [15]): 60%
pest or weed control at 125 g/ha [13, 14]: 80%
pest or weed control at 500 g/ha [13, 15]: 90%

O=C1NC[C@H](c2cncs2)[C@H]1C(=O)Nc1ccccc1F [Compound 1335]
pest or weed control at 250 g/ha (rice (Oryra sativa); 360 h, visually evaluated after 13 to 15 d, read-out: Plant response rating, Rice (0 to 100 scale where 0 is no effect and 100 is complete control)): 0%
pest or weed control at 250 g/ha ([1]; 360 h, visually evaluated after 13 to 15 d, read-out: Plant response rating, Ducksalad (0 to 100 scale where 0 is no effect and 100 is complete control)): 0%
pest or weed control at 250 g/ha ([2]; 360 h, visually evaluated after 13 to 15 d, read-out: Plant response rating, Sedge, Umbrella (0 to 100 scale where 0 is no effect and 100 is complete control)): 0%
pest or weed control at 250 g/ha ([3]; 360 h, visually evaluated after 13 to 15 d, read-out: Plant response rating, Barnyardgrass (0 to 100 scale where 0 is no effect and 100 is complete control)): 0%
pest or weed control at 125 g/ha ([4]; Postemergence, visual rating about 10 d after treatment, read-out: Ryegrass, Italian plant response rating (0 to 100 scale)): 0%
pest or weed control at 500 g/ha ([4]; Postemergence, 500 g ai/ha, visual injury, 0 to 100 scale (0 no effect, 100 complete control), approx. 10 d, read-out: Plant response rating, Ryegrass, Italian): 0%
pest or weed control at 125 g/ha ([5]; Postemergence, visual rating about 10 d after treatment, read-out: Pigweed plant response rating (0 to 100 scale)): 0%
pest or weed control at 500 g/ha ([5]; Postemergence, 500 g ai/ha, visual injury, 0 to 100 scale (0 no effect, 100 complete control), approx. 10 d, read-out: Plant response rating, Pigweed): 0%
pest or weed control at 125 g/ha ([6]; Postemergence, visual rating about 10 d after treatment, read-out: Blackgrass plant response rating (0 to 100 scale)): 0%
pest or weed control at 500 g/ha ([6]; Postemergence, 500 g ai/ha, visual injury, 0 to 100 scale (0 no effect, 100 complete control), approx. 10 d, read-out: Plant response rating, Blackgrass): 0%
pest or weed control at 125 g/ha ([7]; Postemergence, visual rating about 10 d after treatment, read-out: Foxtail, Giant plant response rating (0 to 100 scale)): 0%
pest or weed control at 500 g/ha ([7]; Postemergence, 500 g ai/ha, visual injury, 0 to 100 scale (0 no effect, 100 complete control), approx. 10 d, read-out: Plant response rating, Foxtail, Giant): 0%
plant injury at 125 g/ha ([8]; Postemergence, visual rating about 10 d after treatment, read-out: Wheat plant response rating (0 to 100 scale)): 0%
plant injury at 500 g/ha ([8]; Postemergence, 500 g ai/ha, visual injury, 0 to 100 scale (0 no effect, 100 complete control), approx. 10 d, read-out: Plant response rating, Wheat): 0%
pest or weed control at 500 g/ha [9, 16]: 0%
pest or weed control at 125 g/ha [9, 17]: 0%
pest or weed control at 500 g/ha [10, 16]: 0%
pest or weed control at 125 g/ha [10, 17]: 0%
pest or weed control at 500 g/ha [11, 16]: 0%
pest or weed control at 125 g/ha [11, 17]: 0%
pest or weed control at 500 g/ha [12, 16]: 0%
pest or weed control at 125 g/ha [12, 17]: 0%
pest or weed control at 500 g/ha (Kochia (Kochia scoparia); [16]): 0%
pest or weed control at 125 g/ha (Kochia (Kochia scoparia); [17]): 0%
pest or weed control at 500 g/ha [13, 16]: 0%
pest or weed control at 125 g/ha [13, 17]: 0%

Reference: patent US12077503B2, “Substituted cyclic amides and their use as herbicides” (FMC CORPORATION, priority 2015, dated 2024)
